The source of these data is patent US20050020576A1, “Kappa agonist compounds and pharmaceutical formulations thereof” (priority 1996, published 2005).

Where a name gives a salt, the structure may show the parent alone.

Sequence of cloned human kappa receptor (P41145 whole entry): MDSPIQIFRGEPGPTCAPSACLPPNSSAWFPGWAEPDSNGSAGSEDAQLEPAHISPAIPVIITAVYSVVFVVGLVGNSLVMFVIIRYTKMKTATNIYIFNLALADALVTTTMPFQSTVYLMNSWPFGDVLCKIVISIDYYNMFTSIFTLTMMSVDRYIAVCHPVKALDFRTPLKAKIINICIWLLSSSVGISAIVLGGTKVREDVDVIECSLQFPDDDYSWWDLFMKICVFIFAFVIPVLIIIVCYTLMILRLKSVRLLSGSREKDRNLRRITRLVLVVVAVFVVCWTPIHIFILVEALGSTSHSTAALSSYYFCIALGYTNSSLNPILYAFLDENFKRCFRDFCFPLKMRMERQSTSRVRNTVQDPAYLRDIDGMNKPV

The first series has as its target cloned human kappa receptor (Homo sapiens, UniProt P41145). The series can be described thus: biochemical. The format is binding. Set-up: (3H)-Diprenorphin, % / k [3H] Diprenorphin, %: dose or concentration left out as unconfirmed.
Settings: not given
Consider `CN(C(=O)Cc1ccc(C(F)(F)F)cc1NC(=O)/C=C\C(=O)O)C1CCCCC1N1CCCC1` (racemic) [Example 4b, (Z)-4-[2-((±)-trans-2-Amino-4-trifluoromethyl-N-methyl-N-[2-(1-pyrrolidinyl)-cyclohexyl]-phenylaetamido)]4-oxo-2-butenoic acid], for which the “[3H]-Diprenorphin, % @ 1 μM” value amounted to 22% @ 1 μM.
Consider `Cl.O=CN1CCN(C(=O)Cc2ccccn2)C(CN2CCCC2)C1` (racemic) [Example 1hh, 4-Formyl-1-[(2-pyridyl)acetyl]-2-(R,S)-[(1-pyrrolidinyl)methyl]piperazine hydrochloride], for which the “(3H)-Diprenorphin, %” value was determined as 0% @ 1 mM.
Take “(±)-trans-3-N-Methyl-N-[2-(1-pyrrolidinyl)cyclohexyl]-(trans-3-furyl)acetamide hydrochloride [Example 4f]”: the “[3H]-Diprenorphin, % @ 1 μM” value worked out at 0% @ 1 μM.
For the compound `CC(=O)N1CCN(C(=O)Cc2ccccn2)C(CN2CCCC2)C1.Cl` (racemic) [Example 1gg, 4-Acetyl-1-[(2-pyridyl)acetyl]-2-(R,S)-[(1-pyrrolidinyl)methyl]piperazine hydrochloride], the “(3H)-Diprenorphin, %” value worked out at 27% @ 1 mM.

The series is the same for the next values; noted with them: Ki (nM) [3H]-Diprenorphin κ.
On to `COc1cc(CC(=O)N(C)[C@H](CN2CC[C@H](O)C2)c2ccccc2)c(S(=O)(=O)N2CCCC2)cc1OC` [Example 135, 2-[2-(N-Pyrrolidinesulfamoyl)-4,5-dimethoxyphenyl]-N-methyl-N-[(1S)-1-phenyl-2-[1-(3S)-(3-hydroxypyrrolidinyl)ethyl]]acetamide], for which affinity was put at a Ki of 0.66 nM.
Take `CN(C(=O)Cc1ccccc1NS(C)(=O)=O)[C@H](CN1CCCC1)c1cccc(NS(C)(=O)=O)c1` [Example 3pp, 2-(2-Methanesulfonamidophenyl)-N-methyl-N-[(1S)-1-(3-methanesulfon-amidophenyl)-2-(1-pyrrolidinyl)ethyl]acetamide Hydrochloride]: affinity was put at a Ki of 4.6 nM.
The same measure, in the same setting: as for `COc1cc(CC(=O)N(C)[C@H](CN2CCCC2)c2ccccc2)c(S(=O)(=O)N(C)Cc2ccccc2)cc1OC` [Example 3xx, 2-(2-N-Benzyl-2-N-methylsulfamoyl-3,4-dimethoxyphenyl)-N-methyl-N-[(1S)-1-phenyl-2-(1-pyrrolidinyl)ethyl]acetamide hydrochloride], the figure is 0.83 nM; as for `CC(C)C(=O)Nc1cccc([C@@H](CN2CCCC2)N(C)C(=O)Cc2ccccc2NC(=O)C(C)C)c1` [Example 3qq, 2-(2-Iso-butyramidophenyl)-N-methyl-N-[(1S)-1-(3-isobutyramido-phenyl)-2-(1-pyrrolidinyl)ethyl]acetamide Methanesulfonic acid salt], 21 nM; as for `CN(C(=O)Cc1ccccc1NS(C)(=O)=O)C(CN1CCCC1)c1cccc(O)c1` (racemic) [Example 3vv, (R,S)-1-[2-(Methanesulfonylamino)phenyl-N-methylacetamido]-1-(3-hydroxyphenyl)-2-(1-pyrrolidino)-ethane, methanesulfonic acid salt], 19.5 nM.
Still for that read-out and setting: as for `COc1cc(CC(=O)N(C)[C@H](CN2CCCC2)c2ccccc2)c(S(=O)(=O)N2CCOCC2)cc1OC` [Example 140, 2-[2-N-(Morpholinesulfamoyl)-4,5-dimethoxyphenyl]-N-methyl-N-[(1S)-1-phenyl-2-[1-(pyrrolidinyl)ethyl]]acetamide], the figure is 0.56 nM; as for `CN(C(=O)Cc1cc2c(cc1S(=O)(=O)N(C)Cc1ccccc1)OCO2)[C@H](CN1CCCC1)c1ccccc1` [Example 131, 2-[2-(N-Benzyl-N-methylsulfamoyl)-4,5-methylenedioxyphenyl]-N-methyl-N-[(1S)-1-phenyl-2-[(1-pyrrolidinyl)ethyl]]acetamide], 0.22 nM; as for `COc1cc(CC(=O)N(C)[C@H](CN2CC[C@H](O)C2)c2ccccc2)c(S(=O)(=O)N2CCN(C)CC2)cc1OC` [Example 139], 4.2 nM.
As to `CCOC(=O)/C=C/C(=O)Nc1cc(Cl)c(Cl)cc1CC(=O)N(C)[C@H](CN1CCCC1)c1ccccc1` [Example 3y, (E) Ethyl 4-[2-(2-amino-4,5-dichlorophenyl)-N-methyl-N-[(1S)-1-phenyl)-2-[1-pyrrolidinyl]ethyl]acetamido]4-oxo-2-butenoate hydrochloride], the affinity corresponds to a Ki of 0.35 nM.
Same read-out and setting: in the case of `COc1cc(CC(=O)N(C)[C@H](CN2CCCC2)c2ccccc2)c(S(=O)(=O)N(C)Cc2ccccc2)cc1OC` [Example 148, 2-[2-(N-Benzyl-N-methylsulfamoyl)-4,5-dimethoxyphenyl]-N-methyl-N-[(1S)-1-phenyl-2-[(1-pyrrolidinyl)ethyl]]acetamide] it was 0.83 nM; in that of `COc1cc(CC(=O)N(C)[C@H](CN2CCCC2)c2ccccc2)c(S(=O)(=O)N(C)CC(=O)O)cc1OC` [Example 142, N-Methyl-[[2-(N-sulfamoyl)-4,5-dimethoxyphenyl]-N-methyl-N-[(1S)-1-phenyl-2-[1-(pyrrolidinyl)ethyl]]acetamido]glycine], 13 nM; in that of `COc1cccc(C(CN2CCCC2)N(C)C(=O)Cc2ccccc2NS(C)(=O)=O)c1` (racemic) [Example 3uu, (R,S)-1-[2-(Methanesulfonylamino)phenyl-N-methylacetamido]-1-(3-methoxyphenyl)-2-(1-pyrrolidino)-ethane, methanesulfonic acid salt], 17.5 nM.

Staying with this series, now noted: Ki, nM 3H-Diprenorphin.
For `COC(=O)N1CCN(C(=O)Cc2ccc(C(F)(F)F)cc2N(S(C)(=O)=O)S(C)(=O)=O)C(CN2CCCC2)C1` (racemic) [Example 1b, Methyl-4-[(2-[N,N-bis-methylsulfonamido]-4-trifluoromethyphenyl)acetyl]-3-(R,S)-[(1-pyrrolidinyl)-methyl]-1-piperazinecarboxylate dihydrochloride], the Ki (as a rule, a dissociation constant, usually derived from enzyme kinetics or from competition with a known ligand) was 7 nM.
Turning to `CS(=O)(=O)N1CCN(C(=O)Cc2ccc(C(F)(F)F)cc2)C(CN2CC[C@H](OC(=O)Cc3ccc(C(F)(F)F)cc3)C2)C1` (stereo partly drawn) [Example 1mm, 4-Methylsulphonyl-1-[(4-α,α,α-triflouromethylphenyl)acetyl]-2-(R,S)-[3-(S)-(4′-α,α,α-triflouromethylphenyl acetate)-1-(pyrrolidinyl)methyl]piperazine hydrochloride], the affinity, expressed as Ki, was 287 nM.
In the case of `COC(=O)N1CCN(C(=O)Cc2ccc(C(F)(F)F)cc2N)C(CN2CCC[C@H]2CO)C1` (mixture of isomers) [Example 1p, Methyl-4-[(2-amino-4-α,α,α-trifluoromethylphenyl)acetyl]-3-(R,S)-[(2-(S)-pyrrolidinemethanol)methyl]-1-piperazinecarboxylate hydrochloride], the Ki was found to be 11 nM.
`COC(=O)N1CCN(C(=O)Cc2ccc(C(F)(F)F)cc2)C(CN2CC[C@H](OC(=O)Cc3ccc(C(F)(F)F)cc3)C2)C1` (mixture of isomers) [Example 1j, Methyl-4-[(4-a,a,a-trifluoromethylphenyl)acetyl]-3-(R,S)-[3-(S)-(4′-α,α,α-trifluoro methylphenylacetate)-1-(pyrrolidinyl)methyl]-1-piperazinecarboxylate hydrochloride]: the Ki was 13 nM.
`CNS(=O)(=O)c1ccc(CC(=O)N2CCN(C(=O)OC)CC2CN2CCCC2)cc1` (racemic) [Example 1f, Methyl-4-[-4-[N-methylamino)sulfamyl]phenyl)acetyl]-3-(R,S)-[(1-pyrrolidinyl)methyl]-1-piperazinecarboxylate hydrochloride] showed an inhibitory constant (Ki) of 53.5 nM.

Still in this series, the particulars now being: Table IA; read-out: Ki(nM) (3H)-Diprenorphin.
`CC(=O)N1CCN(C(=O)Cc2ccc(S(C)(=O)=O)cc2)C(CN2CC[C@H](OC(=O)Cc3ccc(S(C)(=O)=O)cc3)C2)C1` (mixture of isomers) [Example 1u, 4-Acetyl-1-[(4-methylsulfonyl]phenyl)acetyl]-2-(R,S)-[3-(S)-(4′-methylsulfonylphenyl acetate)-1-(Pyrrolidinyl)methyl]piperazine hydrochloride]: the Ki turned out to be 1780 nM.

The same series, now with this note: Table IIIA; read-out: Ki (nM) [3H]-Diprenorphin κ.
For the compound `CN(C(=O)Cc1ccc(C(F)(F)F)cc1NCC(=O)O)[C@H](CN1CCCC1)c1ccccc1` [Example 3b, N-[(4-Trifluoromethylphenyl)-N-methyl-N-{[1S]-1-phenyl-2-[1-pyrrolidinyl)]ethyl}acetamido]glycine hydrochloride], the Ki was 464 nM.

The same series, now with this note: read-out: Ki (nM) [3H]-Diprenorphin κ.
Consider `CN(C(=O)Cc1ccccc1NC(=O)/C=C\C(=O)O)[C@H](CN1CCCC1)c1ccccc1` [Example 3aa, (Z)-4-[2-(2-Aminophenyl)-N-methyl-N-[(1S)-1-phenyl)-2-(1-pyrrolidinyl]-ethyl]acetamido]4-oxo-2-butenoic acid hemimaleate], for which the Ki was 5280 nM.

Still in this series, the particulars now being: read-out: Ki(nM) [3H]-Diprenorphin κ.
Turning to `COc1cc(CC(=O)N(C)[C@H](CN2CC[C@H](O)C2)c2ccccc2)c(S(=O)(=O)N(C)C)cc1OC` [Example 137, 2-[2-(N-Dimethylsulfamoyl)-4,5-dimethoxyphenyl]-N-methyl-N-[(1S)-1-phenyl-2-[1-(3S)-(3-hydroxypyrrolidinyl)ethyl]]acetamide], the Ki came out at 0.83 nM.
On the same count and under the same terms, as for `COc1cc(CC(=O)N(C)[C@H](CN2CCCC2)c2ccccc2)c(S(=O)(=O)NC(C)(C)C)c(OC)c1OC` [Example 144, 2-[2-(N-t-Butylsulfamoyl)-3,4,5-trimethoxyphenyl]-N-methyl-N-[(1S)-1-phenyl-2-[(1-pyrrolidinyl)ethyl]]acetamide], the figure is 0.17 nM.

Tested on in a further series: not given
Assay: not given
Settings: not given
Consider `CN(C(=O)Cc1ccc(Cl)c(Cl)c1)[C@@H]1c2cc(N(CC(=O)O)CC(=O)O)ccc2CC[C@H]1N1CCCC1` (relative stereo) (as salt: HCl), for which the melting point (usually the temperature, or range, at which the solid turns liquid) is 160 °C (dec.).
The compound `CN(C(=O)Cc1ccccc1NS(C)(=O)=O)[C@@H]1CCCC[C@H]1N1CCCC1.Cl` (racemic) displayed a melting point of 229 to 231 °C.
Turning to `CN(C(=O)Cc1ccc(Cl)c(Cl)c1)[C@H](CN1CCCC1)c1cccc(NS(N)(=O)=O)c1` (racemic) (as salt: hydrochloride) [Example 3c, 2-(3,4-Dichlorophenyl)-N-methyl-N-[(1R,S)-1-(3-sulfamidophenyl)-2-(1-pyrrolidinyl)ethyl]acetamide hydrochloride], the melting point fell in the range of 198 to 200 °C.
